From patent US12398140B2, “Substituted pyrrolo [2,3-d]pyrimidines for treating familial dysautonomia” (PTC THERAPEUTICS, INC., priority 2019, dated 2025)

System: Elongator complex protein 1 (ELPI, also referred to as IKBKAP)
Test: IKBKAP-HTRF assay (IKBKAP protein in lysates of FD patient-derived fibroblasts)
Type: cell-based, human
Details: FD patient-derived fibroblasts GM04589, 48 hours, 7-point concentration curve
Method: The assay is used for the quantitative determination of Elongator complex protein 1 (ELPI, also referred to as IKBKAP) concentration in cell lysates using the HTRF® (Homogeneous Time-Resolved Fluorescence) technology. IKBKAP is detected in a sandwich HTRF assay by use of an anti-IKAP antibody labeled with a donor and an anti-IKAP antibody labeled with an acceptor.
Cells were thawed and incubated in DMEM-10% FBS for 72 hours. Cells were trypsinized, counted, and re-suspended to a concentration of 50,000 cells/ml in DMEM-10% FBS. A 199 μL aliquot of the cell suspensions were plated at 10,000 cells per well in a 96 well microtiter plate and incubated for 3 to 5 hours. […] Test compounds were serially diluted 3.16-fold in 100% DMSO to generate a 7-point concentration curve. A 1 μL aliquot of 200× compound solution was transferred to cell-containing wells, and cells were incubated for 48 hours in a cell culture incubator (37° C., 5% CO2, 100% relative humidity). Triplicate samples were set up for each compound concentration. After 48 hours, the supernatant was removed from the cells and 50 μL of the 1×LB4 lysis buffer, containing protease inhibitors, was added to the cells and incubated with shaking at room temperature for 1 hour. A 36 μL aliquot of this lysate was subsequently transferred to the 384-well plate containing 4 μL of the antibody solution (1:50 dilution of anti IKAP d2 and anti-IKAP K(9+8) in detection buffer). The 384-well plate was then centrifuged for 1 minute to bring the solutions to the bottom of the plate and incubated overnight at 4° C. Fluorescence for each well of the plate at 665 nm and 620 nm was measured was on the EnVision plate reader (Perkin Elmer). The ΔF for each sample is calculated by:
[formula] wherein Signal is the normalized fluorescence for each sample well and Blank is the average normalized average fluorescence for the Blank control wells.
The maximum fold increase (MFI) in IKBKAP protein abundance for compounds of Formula (I) or a form thereof relative to the vehicle control are provided in Table 1. MFI was calculated by dividing the ΔF value for each sample well by the sample ΔF for the vehicle control wells.
The EC2x for IKBKAP protein expression obtained from the 7-point concentration curve generated for each test compound according to the protocol in Biological Example 1 are also provided in Table 1. The term “EC2x for IKBKAP protein expression” is defined as the concentration of test compound that is effective in producing two times the amount of IKBKAP protein in a FD patient cell compared to the amount produced from the DMSO vehicle control.

| Compound | EC2x for IKBKAP protein expression (concentration producing two times the amount of IKBKAP protein vs DMSO vehicle control) | MFI (maximum fold increase in IKBKAP protein abundance relative to the vehicle control) |
| --- | --- | --- |
| CC[C@H](N)Cc1[nH]c2nc(Cl)nc(NCc3ccco3)c2c1F.Cl [Cpd 44, 6-[(2S)-2-aminobutyl]-2-chloro-5-fluoro-N-[(furan-2-yl)methyl]-7H-pyrrolo[2,3-d]pyrimidin-4-amine hydrochloride] | **** (between >0.005 μM and ≤0.02 μM is indicated by four stars (****)) | ***** (>4.9 is indicated by five stars (*****)) |
| COc1ccc(-n2c(C[C@H](C)N)c(F)c3c(NCc4ccco4)nc(Cl)nc32)cc1.Cl [Cpd 46, 6-[(2S)-2-aminopropyl]-2-chloro-5-fluoro-N-[(furan-2-yl)methyl]-7-(4-methoxyphenyl)-7H-pyrrolo[2,3-d]pyrimidin-4-amine hydrochloride] | * (An EC2x>1 μM is indicated by one star (*)) | * (An MFI≤1.9 is indicated by one star (*)) |
| CCn1c(C[C@H](C)N)c(F)c2c(NCc3ccco3)nc(Cl)nc21.Cl [Cpd 42, 6-[(2S)-2-aminopropyl]-2-chloro-7-ethyl-5-fluoro-N-[(furan-2-yl)methyl]-7H-pyrrolo[2,3-d]pyrimidin-4-amine hydrochloride] | *** (between >0.02 μM and ≤0.5 μM is indicated by three stars (***)) | ** (between >1.9 and ≤2.9 is indicated by two stars (**)) |
| CC(C)[C@H](N)Cc1[nH]c2nc(Cl)nc(NCc3ccco3)c2c1F.Cl [Cpd 14, 6-[(2R)-2-amino-3-methylbutyl]-2-chloro-5-fluoro-N-[(furan-2-yl)methyl]-7H-pyrrolo[2,3-d]pyrimidin-4-amine hydrochloride] | **** (between >0.005 μM and ≤0.02 μM is indicated by four stars (****)) | ***** (>4.9 is indicated by five stars (*****)) |
| CC[C@H](N)Cc1c(F)c2c(NCc3ccco3)nc(Cl)nc2n1C.Cl [Cpd 45, 6-[(2S)-2-aminobutyl]-2-chloro-5-fluoro-N-[(furan-2-yl)methyl]-7-methyl-7H-pyrrolo[2,3-d]pyrimidin-4-amine hydrochloride] | *** (between >0.02 μM and ≤0.5 μM is indicated by three stars (***)) | ***** (>4.9 is indicated by five stars (*****)) |
| C[C@H](N)Cc1c(F)c2c(NCc3ccccc3)nc(Cl)nc2n1C.Cl [Cpd 51, 6-[(2S)-2-aminopropyl]-N-benzyl-2-chloro-5-fluoro-7-methyl-7H-pyrrolo[2,3-d]pyrimidin-4-amine hydrochloride] | *** (between >0.02 μM and ≤0.5 μM is indicated by three stars (***)) | *** (between >2.9 and ≤3.9 is indicated by three stars (***)) |
| COC[C@H](N)Cc1c(F)c2c(NCc3ccco3)nc(Cl)nc2n1C.Cl [Cpd 37, 6-[(2R)-2-amino-3-methoxypropyl]-2-chloro-5-fluoro-N-[(furan-2-yl)methyl]-7-methyl-7H-pyrrolo[2,3-d]pyrimidin-4-amine hydrochloride] | *** (between >0.02 μM and ≤0.5 μM is indicated by three stars (***)) | ***** (>4.9 is indicated by five stars (*****)) |
| CNCCc1cc2c(NCc3nccs3)nc(Cl)nc2[nH]1.Cl [Cpd 5, 2-chloro-6-[2-(methylamino)ethyl]-N-[(1,3-thiazol-2-yl)methyl]-7H-pyrrolo[2,3-d]pyrimidin-4-amine hydrochloride] | *** (between >0.02 μM and ≤0.5 μM is indicated by three stars (***)) | ***** (>4.9 is indicated by five stars (*****)) |
| CC(C)(C)[C@H](N)Cc1cc2c(NCc3ccco3)nc(Cl)nc2[nH]1.Cl [Cpd 29, 6-[(2R)-2-amino-3,3-dimethylbutyl]-2-chloro-N-[(furan-2-yl)methyl]-7H-pyrrolo[2,3-d]pyrimidin-4-amine hydrochloride] | *** (between >0.02 μM and ≤0.5 μM is indicated by three stars (***)) | **** (between >3.9 and ≤4.9 is indicated by four stars (****)) |
| C[C@H](N)Cc1[nH]c2nc(Cl)nc(NCc3cccnc3)c2c1F.Cl.Cl [Cpd 56, 6-[(2S)-2-aminopropyl]-2-chloro-5-fluoro-N-[(pyridin-3-yl)methyl]-7H-pyrrolo[2,3-d]pyrimidin-4-amine dihydrochloride] | * (An EC2x>1 μM is indicated by one star (*)) | * (An MFI≤1.9 is indicated by one star (*)) |
| C[C@H](N)Cc1c(Cl)c2c(NCc3ccco3)nc(Cl)nc2n1C.Cl [Cpd 23, 6-[(2S)-2-aminopropyl]-2,5-dichloro-N-[(furan-2-yl)methyl]-7-methyl-7H-pyrrolo[2,3-d]pyrimidin-4-amine hydrochloride] | **** (between >0.005 μM and ≤0.02 μM is indicated by four stars (****)) | ***** (>4.9 is indicated by five stars (*****)) |
| CNCCc1[nH]c2nc(Cl)nc(NCc3ccco3)c2c1Cl.Cl [Cpd 17, 2,5-dichloro-N-[(furan-2-yl)methyl]-6-[2-(methylamino)ethyl]-7H-pyrrolo[2,3-d]pyrimidin-4-amine hydrochloride] | *** (between >0.02 μM and ≤0.5 μM is indicated by three stars (***)) | **** (between >3.9 and ≤4.9 is indicated by four stars (****)) |
| CC[C@H](N)Cc1cc2c(NCc3ccco3)nc(Cl)nc2[nH]1 [Cpd 26, 6-[(2S)-2-aminobutyl]-2-chloro-N-[(furan-2-yl)methyl]-7H-pyrrolo[2,3-d]pyrimidin-4-amine] | **** (between >0.005 μM and ≤0.02 μM is indicated by four stars (****)) | **** (between >3.9 and ≤4.9 is indicated by four stars (****)) |
| CN(C)CCc1cc2c(NCc3ccco3)nc(Cl)nc2[nH]1 [Cpd 7, 2-chloro-6-[2-(dimethylamino)ethyl]-N-[(furan-2-yl)methyl]-7H-pyrrolo[2,3-d]pyrimidin-4-amine] | * (An EC2x>1 μM is indicated by one star (*)) | * (An MFI≤1.9 is indicated by one star (*)) |
| CC[C@H](N)Cc1[nH]c2nc(Cl)nc(NCc3ccco3)c2c1Cl.Cl [Cpd 21, 6-[(2S)-2-aminobutyl]-2,5-dichloro-N-[(furan-2-yl)methyl]-7H-pyrrolo[2,3-d]pyrimidin-4-amine hydrochloride] | **** (between >0.005 μM and ≤0.02 μM is indicated by four stars (****)) | **** (between >3.9 and ≤4.9 is indicated by four stars (****)) |
| C[C@H](N)Cc1c(F)c2c(NCc3cccs3)nc(Cl)nc2n1C.Cl [Cpd 49, 6-[(2S)-2-aminopropyl]-2-chloro-5-fluoro-7-methyl-N-[(thiophen-2-yl)methyl]-7H-pyrrolo[2,3-d]pyrimidin-4-amine hydrochloride] | **** (between >0.005 μM and ≤0.02 μM is indicated by four stars (****)) | ***** (>4.9 is indicated by five stars (*****)) |
| C[C@H](N)Cc1[nH]c2nc(Cl)nc(NCc3cccs3)c2c1F.Cl [Cpd 40, 6-[(2S)-2-aminopropyl]-2-chloro-5-fluoro-N-[(thiophen-2-yl)methyl]-7H-pyrrolo[2,3-d]pyrimidin-4-amine hydrochloride] | **** (between >0.005 μM and ≤0.02 μM is indicated by four stars (****)) | ***** (>4.9 is indicated by five stars (*****)) |
